From patent US5466671A, “Apidaecin-type peptide antibiotics with improved activities and/or different antibacterial spectrum” (priority 1994, dated 1995)
Residues, ends and D or L forms follow the SMILES beside them.

Columns and labels:
[1] = tested on: Escherichia coli (11775 Apid R); assay type: cell-based; details: agar plate, 50 nanomoles/well, 3 mm wells
Y. enterocolitica = experiment: Minimal inhibitory concentration (liquid culture); details: inoculum 5000 CFU/ml; a-b = highest concentration with growth - lowest without growth
M. morganii = experiment: Minimal inhibitory concentration (liquid culture); details: inoculum 400 CFU/ml; a-b = highest concentration with growth - lowest without growth
Rhizobium meliloti = experiment: Inhibition zone assay (agar plate); assay type: cell-based; details: 50 nanomoles/well, 3 mm wells
A. calcoaceticus = experiment: Minimal inhibitory concentration (liquid culture); details: inoculum 16 × 10^6 CFU/ml; a-b = highest concentration with growth - lowest without growth
Salmonella typhi = assay type: cell-based; details: agar plate, 50 nanomoles/well, 3 mm wells
E. coli 11775 = experiment: Minimal inhibitory concentration (liquid culture); details: for minimal inhibitory concentration (MIC): a-b = highest concentration with growth - lowest without growth
S. typhimurium = experiment: Minimal inhibitory concentration (liquid culture); details: inoculum 8 × 10^6 CFU/ml; a-b = highest concentration with growth - lowest without growth
[2] = tested on: Escherichia coli (ATCC11775); experiment: Inhibition zone assay (agar plate); assay type: cell-based; details: agar plate, 50 nanomoles/well, 3 mm wells
E. coli 23802 = experiment: Minimal inhibitory concentration (liquid culture); details: inoculum 5000 CFU/ml; a-b = highest concentration with growth - lowest without growth
Pseudomonas syringae = experiment: Inhibition zone assay (agar plate); assay type: cell-based; details: agar plate, 50 nanomoles/well, 3 mm wells
E. coli Apid^R = experiment: Minimal inhibitory concentration (liquid culture); assay type: cell-based; details: a-b = highest concentration with growth - lowest without growth
Excerpt: For details see `Experimental Procedures`.

Legionella pneumophila = assay type: cell-based; details: agar plate, 50 nanomoles/well, 3 mm wells
Haemophilus influenzae = experiment: Inhibition zone assay (agar plate); assay type: cell-based; details: 50 nanomoles/well, 3 mm wells
[3] = tested on: Agrobacterium tumefaciens; experiment: Inhibition zone assay (agar plate); assay type: cell-based; details: agar plate, 50 nanomoles/well, 3 mm wells
Enterobacter cloacae = experiment: Inhibition zone assay (agar plate); assay type: cell-based; details: agar plate, 50 nanomoles/well, 3 mm wells
Salmonella typhimurium = experiment: Inhibition zone assay (agar plate); assay type: cell-based; details: agar plate, 50 nanomoles/well, 3 mm wells
[4] = tested on: Acinetobacter calcoaceticus; experiment: Inhibition zone assay (agar plate); assay type: cell-based; details: agar plate, 50 nanomoles/well, 3 mm wells
Escherichia coli (K514) = assay type: cell-based; details: agar plate, 50 nanomoles/well, 3 mm wells
E. coli 25922 = experiment: Minimal inhibitory concentration (liquid culture); details: inoculum 1100 CFU/ml; a-b = highest concentration with growth - lowest without growth
Campylobacter jejuni = experiment: Inhibition zone assay (agar plate); assay type: cell-based; details: 50 nanomoles/well, 3 mm wells
Erwinia amylovora = experiment: Inhibition zone assay (agar plate); assay type: cell-based; details: agar plate, 50 nanomoles/well, 3 mm wells
Morganella morganii = experiment: Inhibition zone assay (agar plate); assay type: cell-based; details: 50 nanomoles/well, 3 mm wells
Klebsiella pneumoniae = experiment: Inhibition zone assay (agar plate); assay type: cell-based; details: agar plate, 50 nanomoles/well, 3 mm wells
Shigella dysenteriae = assay type: cell-based; details: agar plate, 50 nanomoles/well, 3 mm wells

SMILES | inhibition zone diameter (number of plus signs) [1] | minimal inhibitory concentration (MIC) (Y. enterocolitica) [µg/mL] | minimal inhibitory concentration (MIC) (M. morganii) [µg/mL] | inhibition zone diameter (number of plus signs) (Rhizobium meliloti) | minimal inhibitory concentration (MIC) (A. calcoaceticus) [µg/mL] | minimal inhibitory concentration (MIC) (E. coli 11775; inoculum 16 × 10^6 CFU/ml) [µg/mL] | minimal inhibitory concentration (MIC) (E. coli 11775; inoculum 1200 CFU/ml) [µg/mL] | minimal inhibitory concentration (MIC) (S. typhimurium) [µg/mL] | inhibition zone diameter (number of plus signs) [2] | minimal inhibitory concentration (MIC) (E. coli 23802) [µg/mL] | inhibition zone diameter (number of plus signs) (Pseudomonas syringae) | minimal inhibitory concentration (MIC) (E. coli Apid^R; inoculum 1000 CFU/ml) [µg/mL] | inhibition zone diameter (number of plus signs) (Legionella pneumophila) | inhibition zone diameter (number of plus signs) (Haemophilus influenzae) | inhibition zone diameter (number of plus signs) [3] | inhibition zone diameter (number of plus signs) (Enterobacter cloacae) | inhibition zone diameter (number of plus signs) (Salmonella typhimurium) | inhibition zone diameter (number of plus signs) [4] | inhibition zone diameter (number of plus signs) (Escherichia coli (K514)) | minimal inhibitory concentration (MIC) (E. coli 25922) [µg/mL] | also measured
CC[C@H](C)[C@H](NC(=O)[C@@H]1CCCN1C(=O)[C@H](C)NC(=O)[C@@H]1CCCN1C(=O)[C@H](CCCNC(=N)N)NC(=O)[C@@H]1CCCN1C(=O)[C@H](CCCCN)NC(=O)[C@H](CO)NC(=O)[C@@H]1CCCN1C(=O)[C@H](CCCCN)NC(=O)CN)C(=O)N[C@@H](CCCCN)C(=O)N1CCC[C@H]1C(=O)N[C@@H](CCCNC(=N)N)C(=O)N1CCC[C@H]1C(=O)N1CCC[C@H]1C(=O)N[C@@H](Cc1c[nH]cn1)C(=O)N1CCC[C@H]1C(=O)N[C@@H](CCCNC(=N)N)C(=O)N[C@@H](CC(C)C)C(=O)O [Cd 3+, Gly--Lys--Pro--Ser--Lys--Pro--Arg--Pro--Ala--Pro--Ile--Lys--Pro--Arg--Pro--Pro--His--Pro--Arg--Leu] (H-GKPSKPRPAPIKPRPPHPRL-OH) | ++ ((++) 7-9 mm) | 10 to 20 | 1 to 5 | +++ ((+++) 10-14 mm) | 10 to 20 | 0.1 to 0.5 | 0.1 to 0.5 | 0.1 to 0.5 | ++ ((++) 7-9 mm) | 0.1 to 0.5 | ++ ((++) 7-9 mm) | 0.5 to 1 | ++ ((++) 7-9 mm) | ++++ ((++++) 15-19 mm) | +++ ((+++) 10-14 mm) | +++ ((+++) 10-14 mm) | ++ ((++) 7-9 mm) | + ((+) 5-6 mm) | + ((+) 5-6 mm) | 0.1 to 0.5 | inhibition zone diameter (number of plus signs) (Salmonella typhi): ++ ((++) 7-9 mm); inoculum effect on inhibition of viability (E. coli 11775; inoculum sizes differing by four orders of magnitude): equally well; minimal inhibitory concentration (MIC) (E. coli Apid^R; inoculum 12 × 10^6 CFU/ml): 0.5 to 1.5 µg/mL; minimal inhibitory concentration (MIC) (E. coli Apid^R; inoculum 12 × 10^6 CFU/ml, listed as Cd3+): measurable activities; inhibition zone diameter (number of plus signs) (Campylobacter jejuni): +++++ ((+++++) 20 or more min); inhibition zone diameter (number of plus signs) (Erwinia amylovora): + ((+) 5-6 mm); inhibition zone diameter (number of plus signs) (Morganella morganii): ++ ((++) 7-9 mm); inhibition zone diameter (number of plus signs) (Klebsiella pneumoniae): ++ ((++) 7-9 mm)
CC[C@H](C)[C@H](NC(=O)[C@@H]1CCCN1C(=O)[C@H](C)NC(=O)[C@@H]1CCCN1C(=O)[C@H](CCCNC(=N)N)NC(=O)[C@@H]1CCCN1C(=O)[C@H](CCCCN)NC(=O)[C@@H](N)CC(N)=O)C(=O)N[C@@H](CCCCN)C(=O)N1CCC[C@H]1C(=O)N[C@@H](CCCNC(=N)N)C(=O)N1CCC[C@H]1C(=O)N1CCC[C@H]1C(=O)N[C@@H](Cc1c[nH]cn1)C(=O)N1CCC[C@H]1C(=O)N[C@@H](CCCNC(=N)N)C(=O)N[C@@H](CC(C)C)C(=O)O [Cd 2-, Asn--Lys--Pro--Arg--Pro--Ala--Pro--Ile--Lys--Pro--Arg--Pro--Pro--His--Pro--Arg--Leu] (H-NKPRPAPIKPRPPHPRL-OH) | ++ ((++) 7-9 mm) | > 40 | 1 to 5 | +++ ((+++) 10-14 mm) | 10 to 20 | 0.5 to 1 | 0.5 to 1 | 1 to 5 | +++ ((+++) 10-14 mm) | 10 to 20 | +++ ((+++) 10-14 mm) | 5 to 10 | ++ ((++) 7-9 mm) | ++ ((++) 7-9 mm) | ++++ ((++++) 15-19 mm) | +++ ((+++) 10-14 mm) | + ((+) 5-6 mm) | + ((+) 5-6 mm) | ++ ((++) 7-9 mm) | 0.5 to 1 | inhibition zone diameter (number of plus signs) (Shigella dysenteriae): ++ ((++) 7-9 mm); inhibition zone diameter (number of plus signs) (Salmonella typhi): + ((+) 5-6 mm); inhibition zone diameter (number of plus signs) (Campylobacter jejuni): +++ ((+++) 10-14 mm); inhibition zone diameter (number of plus signs) (Erwinia amylovora): +++ ((+++) 10-14 mm); inhibition zone diameter (number of plus signs) (Morganella morganii): ++ ((++) 7-9 mm); inhibition zone diameter (number of plus signs) (Klebsiella pneumoniae): ++ ((++) 7-9 mm)
CC[C@H](C)[C@H](NC(=O)[C@@H]1CCCN1C(=O)[C@H](C)NC(=O)[C@@H]1CCCN1C(=O)[C@H](CCCNC(=N)N)NC(=O)[C@@H]1CCCN1C(=O)[C@H](CCCCN)NC(=O)[C@@H](N)CO)C(=O)N[C@@H](CCCCN)C(=O)N1CCC[C@H]1C(=O)N[C@@H](CCCNC(=N)N)C(=O)N1CCC[C@H]1C(=O)N1CCC[C@H]1C(=O)N[C@@H](Cc1c[nH]cn1)C(=O)N1CCC[C@H]1C(=O)N[C@@H](CCCNC(=N)N)C(=O)N[C@@H](CC(C)C)C(=O)O [Cd 3-, Ser--Lys--Pro--Arg--Pro--Ala--Pro--Ile--Lys--Pro--Arg--Pro--Pro--His--Pro--Arg--Leu] (H-SKPRPAPIKPRPPHPRL-OH) | ++ ((++) 7-9 mm) | 20 to 40 | 1 to 5 | ++++ ((++++) 15-19 mm) | 10 to 20 | 0.5 to 1 | 0.1 to 0.5 | 1 to 5 | ++ ((++) 7-9 mm) | 5 to 10 | ++ ((++) 7-9 mm) | 5 to 10 | ++ ((++) 7-9 mm) | +++ ((+++) 10-14 mm) | ++ ((++) 7-9 mm) | +++ ((+++) 10-14 mm) | ++ ((++) 7-9 mm) | + ((+) 5-6 mm) | + ((+) 5-6 mm) | 0.5 to 1 | inhibition zone diameter (number of plus signs) (Shigella dysenteriae): ++ ((++) 7-9 mm); minimal inhibitory concentration (MIC) (E. coli Apid^R; inoculum 12 × 10^6 CFU/ml): 5 to 10 µg/mL; inhibition zone diameter (number of plus signs) (Campylobacter jejuni): ++++ ((++++) 15-19 mm); inhibition zone diameter (number of plus signs) (Erwinia amylovora): + ((+) 5-6 mm); inhibition zone diameter (number of plus signs) (Morganella morganii): ++ ((++) 7-9 mm); inhibition zone diameter (number of plus signs) (Klebsiella pneumoniae): ++ ((++) 7-9 mm)
